Tests used:
[1] = test system: Hs578T (breast cancer); experiment: Cell migration of cancer cells (phase-contrast videomicroscopy), Hs578T; type: cell-based, human
Method: (§1) Cells of different types of cancer, i.e. U-373 MG (Glioma), Hs578T (breast cancer), PC-3 (prostate cancer) and A549 (lung cancer) were seeded on culture flask 48 hours before the migration experiment. On the test day, cells were treated with or without compounds UBS3270, UBS3285, UBS3327, UBS3328, UBS3501, UBS3585, UBS3597, UBS3976, UBS4066, UBS4095, UBS4104, UBS4109, UBS4209 and UBS4373 in closed Falcon dishes containing a buffered medium at a controlled temperature (37.0±0.1° C.) for 12 or 24 hours. The compounds were administered at 4 concentrations (10^−7 M to 10^−10 M). Migration of the cells was observed by means of a CCD-camera mounted on a phase-contrast microscope. A statistical analyse of the migration, with the non-parametric Mann-Whitney test, was established for 25%-50% of the most motile cells and for the entire cell population for UBS3270, UBS3285, UBS3327, UBS3328, UBS3501, UBS3585, UBS3597, UBS3976, UBS4066, UBS4095, UBS4104, UBS4109, UBS4209 and UBS4373 compounds. The table C below illustrates the anti-migratory effect of the compound according to the invention.

[2] = test system: P388 lymphoma; experiment: Survival of P388 lymphoma bearing mice (T/C index); type: in vivo, mouse; details: 40 mg/kg subcutaneously, T/C of 130% or more = significant prolongation of survival
Method: The compounds UBS3328 and UBS3501 were evaluated on the aggressive P388 lymphoma cancer model. When leukemic P388 cells of lymphoblastic origin (Pihl A. UICC Study Group on chemosensitivity testing of human tumors. Problems-applications-future prospects. Int J Cancer. 1986 Jan. 15; 37(1):1-5) are grafted subcutaneously, they develop as very biologically aggressive anaplastic lymphomas markedly metastasizing first into the liver, then in the lungs and occasionally in kidneys. The mice suffering from P388 lymphomas usually die about 2 weeks after the cell injection. The P388 lymphoma was thus used as a model representative of a clinically terminal state of cancer.
The model was performed with 5 mice per group and the compounds UBS3328 and UBS3501 were injected subcutaneously at 40 mg/kg for 4 days, two times per day, for the two first weeks post graft followed by one administration everyday, one times per day for the third week post graft.
The effect of the compounds UBS3328 and UBS3501 on the survival of the P388 cancer bearing mice is evaluated following the analysis of the T/C index. T/C index is calculated by dividing the median day of death in a treated group T by the median day of death in the control group C. T/C values of 130% or more (i.e. a prolongation of mice survival of 30% or more) indicate a significant prolongation of survival.

[3] = test system: U-373 MG (Glioma); experiment: Cell migration of cancer cells (phase-contrast videomicroscopy), U-373 MG; type: cell-based, human
Method: as §1

[4] = test system: A549 (lung cancer); experiment: Cell migration of cancer cells (phase-contrast videomicroscopy), A549; type: cell-based, human; details: 25% of most motile cells
Method: as §1

[5] = test system: PC-3 (prostate cancer); experiment: Cell migration of cancer cells (phase-contrast videomicroscopy), PC-3; type: cell-based, human
Method: as §1

[6] = 24 hours, 25% of most motile cells, 10^−9 M
[7] = 12 hours, entire cell population, 10^−9 M

COc1ccc(OC)c(C2CC3C4CC=C5CC(OC6O[C@H](CO)[C@@H](O)[C@H](O)[C@@H]6O)CCC5(C)C4CCC3(C)C2C(C)=O)c1 (some centres unmarked) [UBS3270]
Max. effects (anti-migratory effect) ([1]; 24 hours, 50% of most motile cells, 10^−7 M): −27%/p < 0.001

COc1ccc(OC)c(C2CC3C4CC=C5CC(OC6O[C@H](CO[C@H]7O[C@H](CO)[C@@H](O)[C@H](O)[C@H]7O)[C@@H](O)[C@H](O)[C@H]6O)CCC5(C)C4CCC3(C)C2C(C)=O)c1 (some centres unmarked) [UBS3328]
T/C index (median day of death treated / control) [2]: 135% | Max. effects (anti-migratory effect) ([3]; 12 hours, entire cell population, 10^−10 M): −27%/p < 0.001 | Max. effects (anti-migratory effect) ([4]; 24 hours, 10^−7 M): −40%/p < 0.001

COc1ccc(OC)c(C2CC3C4CC=C5CC(OC6O[C@@H](C)[C@@H](O)[C@@H](O)[C@@H]6O)CCC5(C)C4CCC3(C)C2C(C)=O)c1 (some centres unmarked) [UBS3501]
T/C index (median day of death treated / control) [2]: 141% | Max. effects (anti-migratory effect) ([3]; 24 hours, 25% of most motile cells, 10^−8 M): −38%/p = 0.01 | Max. effects (anti-migratory effect) ([5]; 12 hours, 25% of most motile cells, 10^−7 M): −23%/p < 0.001

COc1ccc(OC)c(C2CC3C4CC=C5CC(OC6O[C@H](CO)[C@@H](O)[C@H](O)[C@H]6NC(C)=O)CCC5(C)C4CCC3(C)C2C(C)=O)c1 (some centres unmarked) [UBS3585]
Max. effects (anti-migratory effect) ([1]; 24 hours, entire cell population, 10^−7 M): −27%/p < 0.001

COc1ccc(OC)c(C2CC3C4CC=C5CC(OC6O[C@H](CO)[C@H](O)[C@H](O)[C@H]6NC(C)=O)CCC5(C)C4CCC3(C)C2C(C)=O)c1 (some centres unmarked) [UBS3597]
Max. effects (anti-migratory effect) [5, 6]: −31%/p < 0.001

COc1ccc(OC)c(C2CC3C4CC=C5CC(OC6O[C@H](CO)[C@@H](O[C@@H]7O[C@H](CO)[C@H](O)[C@H](O)[C@H]7O)[C@H](O)[C@H]6O)CCC5(C)C4CCC3(C)C2C(C)=O)c1 (some centres unmarked) [UBS3976]
Max. effects (anti-migratory effect) ([3]; 24 hours, 25% of most motile cells, 10^−10 M): −46%/p < 0.001 | Max. effects (anti-migratory effect) ([5]; 12 hours, 25% of most motile cells, 10^−8 M): −51%/p < 0.001

COc1ccc(OC)c(C2CC3C4CC=C5CC(OC6O[C@@H](C)[C@@H](O)[C@@H](O)[C@@H]6O)CCC5(C)C4CCC3(C)C2C(C)OC2O[C@@H](C)[C@@H](O)[C@@H](O)[C@@H]2O)c1 (some centres unmarked) [UBS4066]
Max. effects (anti-migratory effect) ([1]; 12 hours, 25% of most motile cells, 10^−9 M): −29%/p < 0.001 | Max. effects (anti-migratory effect) [5, 6]: −45%/p < 0.001

COc1ccc(OC)c(C2CC3C4CC=C5CC(OC6O[C@H](CO)[C@@H](O[C@H]7O[C@H](CO)[C@@H](O)[C@H](O)[C@H]7O)[C@H](O)[C@H]6O)CCC5(C)C4CCC3(C)C2C(C)=O)c1 (some centres unmarked) [UBS4095]
Max. effects (anti-migratory effect) ([3]; 24 hours, entire cell population, 10^−9 M): −27%/p < 0.001

COc1ccc(OC)c(C2CC3C4CC=C5CC(O[C@@H]6O[C@H](CO)[C@@H](O)[C@H](O)[C@H]6NC(C)=O)CCC5(C)C4CCC3(C)C2C(C)=O)c1 (some centres unmarked) [UBS4104]
Max. effects (anti-migratory effect) ([3]; 12 hours, 50% of most motile cells, 10^−10 M): −23%/p < 0.001 | Max. effects (anti-migratory effect) ([4]; 24 hours, 10^−10 M): −46%/p < 0.001

COc1ccc(OC)c(C2CC3C4CC=C5CC(OC6O[C@H](CO)[C@@H](O[C@@H]7O[C@H](CO)[C@@H](O)[C@H](O)[C@H]7O)[C@H](O)[C@H]6O)CCC5(C)C4CCC3(C)C2C(C)OC2O[C@H](CO)[C@@H](O[C@@H]3O[C@H](CO)[C@@H](O)[C@H](O)[C@H]3O)[C@H](O)[C@H]2O)c1 (some centres unmarked) [UBS4109]
Max. effects (anti-migratory effect) [5, 7]: −34%/p < 0.001

COc1ccc(OC)c(C2CC3C4CC=C5CC(OC6O[C@H](CO)[C@@H](O[C@@H]7O[C@H](CO)[C@H](O)[C@H](O)[C@H]7O)[C@H](O)[C@H]6O)CCC5(C)C4CCC3(C)C2C(C)OC2O[C@H](CO)[C@@H](O[C@@H]3O[C@H](CO)[C@H](O)[C@H](O)[C@H]3O)[C@H](O)[C@H]2O)c1 (some centres unmarked) [UBS4209]
Max. effects (anti-migratory effect) ([4]; 12 hours, 10^−8 M): −26%/p < 0.001 | Max. effects (anti-migratory effect) ([1]; 24 hours, 25% of most motile cells, 10^−7 M): −26%/p < 0.001

COc1ccc(OC)c(C2CC3C4CC=C5CC(OC6O[C@H](CO[C@H]7O[C@H](CO)[C@@H](O)[C@H](O)[C@H]7O)[C@@H](O)[C@H](O)[C@H]6O)CCC5(C)C4CCC3(C)C2C(C)OC2O[C@H](CO[C@H]3O[C@H](CO)[C@@H](O)[C@H](O)[C@H]3O)[C@@H](O)[C@H](O)[C@H]2O)c1 (some centres unmarked) [UBS4373]
Max. effects (anti-migratory effect) [3, 7]: −24%/p < 0.001
